The text below walks through data of patent publication US7897815B2, “Hexafluoroisopropanol derivatives” (Hoffmann-La Roche Inc., priority 2004, dated 2011).

Assay [1] addresses T1, human LXR alpha (GST-LXRα-LBD) (Homo sapiens, UniProt Q13133).
T1 construct: human LXR alpha (aa 164 to 447); made in house; host or cells: E. coli BL21 (pLysS)
T1 sequence (Q13133 164-447): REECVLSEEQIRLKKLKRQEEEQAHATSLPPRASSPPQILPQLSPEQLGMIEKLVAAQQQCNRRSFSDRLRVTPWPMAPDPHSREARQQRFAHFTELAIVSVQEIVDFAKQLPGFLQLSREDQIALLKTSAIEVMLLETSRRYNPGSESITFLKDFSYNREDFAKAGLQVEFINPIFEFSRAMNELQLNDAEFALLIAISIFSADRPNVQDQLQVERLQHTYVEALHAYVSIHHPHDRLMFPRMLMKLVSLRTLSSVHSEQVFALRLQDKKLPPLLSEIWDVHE
Nature of the assay: Radioligand binding assay (SPA), LXR alpha. As to conditions: GST-LXRα-LBD on SPA beads, read-out: LXRalpha Binding IC50. The procedure: The following tests were carried out in order to determine the activity of the compounds of the present invention. Background information on the performed assays can be found in: Nichols J S et al. “Development of a scintillation proximity assay for peroxisome proliferator-activated receptor gamma ligand binding domain”, Anal Biochem. 1998, 257: 112-119.
Mammalian expression vectors were constructed to express full-length human LXR alpha and LXR beta. Bacterial expression vectors were constructed to produce glutathione-s-transferase (GST) fused to the ligand binding domains (LBD) of human LXR alpha (aa 164 to 447) and human LXR beta (aa 155 to 460). To accomplish this, the portions of the sequences encoding the LBDs were amplified from full-length clones by PCR and then subcloned into the plasmid vectors. Final clones were verified by DNA sequence analysis (Willy et al., Genes Dev. 1995, 9:1033-45; Song et al., Proc Natl Acad Sci USA. 1994, 91:10809-13).
Induction, expression, and purification of GST-LBD fusion proteins were performed in E. coli strain BL21 (pLysS) cells by standard methods (Ref: Current Protocols in Molecular Biology, Wiley Press, edited by Ausubel et al).
LXR alpha and LXR beta receptor binding were assayed in buffer consisting of 50 mM HEPES, pH 7.4, 10 mM NaCl, 5 mM MgCl2. For each 96-well reaction, 500 ng of GST-LXRα-LBD or 700 ng of GST-LXR beta-LBD fusion proteins were bound to 80 μg or 40 μg SPA beads (Pharmacia Amersham) respectively, in a final volume of 50 μl by shaking. The resulting slurry was incubated for 1 h at RT and centrifuged for 2 min at 1300×g. The supernatant containing unbound protein was removed, and the semi-dry pellet containing the receptor-coated beads was re-suspended in 50 μl of buffer. […] All binding assays were performed in 96-well plates and the amount of bound ligand was measured on a Packard TopCount using OptiPlates (Packard). Dose response curves were measured within a range of concentration from 10^−10 M to 10^−4 M.

For assay [2], the target named is T2, human LXR beta (GST-LXR beta-LBD) (Homo sapiens, UniProt P55055).
T2 construct: human LXR beta (aa 155 to 460); made in house; host or cells: E. coli BL21 (pLysS)
T2 sequence (P55055 155-460): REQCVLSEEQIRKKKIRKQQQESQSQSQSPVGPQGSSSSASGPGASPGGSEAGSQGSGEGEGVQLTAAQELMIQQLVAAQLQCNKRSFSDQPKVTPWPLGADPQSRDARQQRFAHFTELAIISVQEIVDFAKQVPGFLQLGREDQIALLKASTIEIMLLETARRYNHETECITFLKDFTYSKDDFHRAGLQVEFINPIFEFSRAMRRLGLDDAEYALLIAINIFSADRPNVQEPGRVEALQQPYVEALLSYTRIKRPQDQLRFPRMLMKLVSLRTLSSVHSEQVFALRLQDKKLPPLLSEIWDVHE
Nature of the assay: Radioligand binding assay (SPA), LXR beta. The following applies: GST-LXR beta-LBD on SPA beads, read-out: LXRbeta Binding IC50. Here is the method:
The following tests were carried out in order to determine the activity of the compounds of the present invention.
Mammalian expression vectors were constructed to express full-length human LXR alpha and LXR beta. […] To accomplish this, the portions of the sequences encoding the LBDs were amplified from full-length clones by PCR and then subcloned into the plasmid vectors.
LXR alpha and LXR beta receptor binding were assayed in buffer consisting of 50 mM HEPES, pH 7.4, 10 mM NaCl, 5 mM MgCl2. […] The resulting slurry was incubated for 1 h at RT and centrifuged for 2 min at 1300×g. The supernatant containing unbound protein was removed, and the semi-dry pellet containing the receptor-coated beads was re-suspended in 50 μl of buffer. Radioligand (eg. 100,000 dpm of (N-(2,2,2-trifluoroethyl)-N-[4-(2,2,2-trifluoro-1-hydroxy-1-trifluoromethylethyl)-phenyl]-benzenesulfonamide)) was added, and the reaction incubated at RT for 1 h in the presence of test compounds, and then scintillation proximity counting was performed. All binding assays were performed in 96-well plates and the amount of bound ligand was measured on a Packard TopCount using OptiPlates (Packard). Dose response curves were measured within a range of concentration from 10^−10 M to 10^−4 M.

For the compound `CCN(Cc1cscn1)c1ccc(C(O)(C(F)(F)F)C(F)(F)F)cc1Cl` [Example 18, 2-{3-chloro-4-[ethyl-(thiazol-4-ylmethyl)-amino]-phenyl}-1,1,1,3,3,3-hexafluoro-propan-2-ol], the IC50 in assay [1] was 17 nM.

As to `CCN(Cc1nc(-c2cccc(C(=O)OC)c2)oc1C)c1ccc(C(O)(C(F)(F)F)C(F)(F)F)cc1` [Example 30, 3-[4-({ethyl-[4-(2,2,2-trifluoro-1-hydroxy-1-trifluoromethyl-ethyl)-phenyl]-amino}-methyl)-5-methyl-oxazol-2-yl]-benzoic acid methyl ester], the IC50 in assay [1] amounted to 2.7 nM; in assay [2] it was 5.7 nM.

On to `CCN(Cc1ccccc1)c1ccc(C(O)(C(F)(F)F)C(F)(F)F)cc1` [Example 1, 2-[4-(benzyl-ethyl-amino)-phenyl]-1,1,1,3,3,3-hexafluoro-propan-2-ol], for which the IC50 in assay [1] was determined as 46 nM.
